# PMC9595134, “Novel pituitary actions of GnRH in teleost: The link between reproduction and feeding regulation” (Frontiers in Endocrinology, 2022)
# Where a SMILES comes first, the peptide text is derived from it. [ ]: non-standard residue; d: D form. pGlu = O=C1CC[C@@H](C(=O)O)N1
# Columns and labels:
# [1] = tested on: goldfish; settings: intracerebroventricular (ICV) injection, ref [39]; cited from earlier work
# [2] = tested on: zebrafish; settings: intracerebroventricular (ICV) injection, ref [38]; cited from earlier work
# [3] = tested on: grass carp pituitary cells; assay: qRT-PCR of reproductive hormone genes in pituitary cells; assay type: cell-based, grass carp (Ctenopharyngodon idellus)
# Method: (§1) The preparation of grass carp pituitary cells was performed as mentioned above. After drug treatment, the total RNA of these cells was isolated by TRIzol reagent and reverse transcribed into cDNA with Hifair™ III 1st Strand cDNA Synthesis Kit. The transcript levels of several anorectic peptides (POMCb, CART2, UTS1, NMBa, NMBb, and Lepr) and reproductive genes (GtHα, LHβ, FSHβ, INHBa, SgII, DRD2) were detected by using an ABI 7500 quantitative real-time PCR (qRT-PCR) system (Biosystems, USA) (information of primers for target genes is listed in Supplementary Table S3 ). In this process, a serial gradient dilution of plasmid DNA of these genes was used as a standard for data calibration. The conditions of qRT-PCR were set to 10 min, 95°C, for pre-degeneration; 15 s, 95°C, for degeneration; 30 s, 55°C–60°C, for annealing; 30 s, 72°C, for extending; and 20 s, 82°C, for signal detection with 40 cycles. Finally, the melt curve obtained through each test was used to verify and check the reliability and specificity of the corresponding qRT-PCR.
# (§2) The transcript level was detected using qRT-PCR by ABI 7500 software, while the data calibration of each reaction was performed through standard curves with the dynamic range of 10^5 and correlation coefficient >0.95. The transcript level of β-actin was used as an internal control, and target gene mRNA expression was normalized and calculated as a percentage of the mean value (as “% Ctrl”). Based on merging four to eight replicates (as mean ± SEM), the data were analyzed with a one-way ANOVA to differentiate the significant differences from other treatment experiments. The SPSS Statistics 26.0 software was used to do a Dunnett’s post-hoc test. […] The different letters represent a significant difference at p < 0.05 between groups.
# To further verify the reproductive function of GnRHs, time- and dose-dependent tests were performed to detect GnRH2- or GnRH3-regulated GtHα, LHβ, FSHβ, INHBa, SgII, and DRD2 mRNA expression in grass carp pituitary cells. […] In the dose-dependent test, a continuous gradient dilution of GnRH2 (0.1–1,000 nM) or GnRH3 (0.1–1,000 nM) was incubated with grass carp pituitary cells for 24 h.
# Figure 5 Regulation of reproductive hormone gene mRNA expression by GnRH2 and GnRH3 in grass carp pituitary cells. (A) Time-course experiment of grass carp GnRH2 (1 μM) and GnRH3 (1 μM) on GtHα, LHβ, FSHβ, INHBa, SgII, and DRD2 mRNA expression in grass carp pituitary cells. (B) Dose dependence of a 24-h treatment with increasing levels of GnRH2 and GnRH3 (0.1–1,000 nM) on GtHα, LHβ, FSHβ, INHBa, SgII, and DRD2 mRNA expression in grass carp pituitary cells. After drug treatment, the pituitary cells were extracted to total RNA, reversed transcribed, and used for RT-PCR to detect the target genes’ mRNA expression. […] The different letters represent a significant difference at p < 0.05 between groups (ANOVA followed by a Dunnett test).
# [4] = tested on: goldfish; design: method as in PMID 7507838, PMID 8045371; settings: ref [34], [35], cited from earlier work
# [5] = tested on: grass carp pituitary cells; assay: qRT-PCR of anorectic genes in pituitary cells; assay type: cell-based, grass carp (Ctenopharyngodon idellus)
# Method: as §1, §2
# To further verify the functional role of GnRH2 and GnRH3 on feeding regulation, time- and dose-dependent tests were performed to detect the effect of GnRH2 and GnRH3 on anorectic gene (POMCb, CART2, UTS1, NMBa, NMBb, and LEPR) mRNA expression. In the time-course test, the grass carp pituitary cells were incubated by GnRH2 or GnRH3 (1 μM) for 3, 6, 12, and 24 h, respectively. […] In the dose-dependent test, grass carp pituitary cells were incubated by the continuous gradient dilution of GnRH2 or GnRH3 (0.1–1,000 nM) for 24 h.
# Figure 9 Regulation of feeding hormone gene mRNA expression by GnRH2 and GnRH3 in grass carp pituitary cells. (A) Time-course experiment of grass carp GnRH2 (1 μM) and GnRH3 (1 μM) on POMCb, CART2, UTS1, NMBa, NMBb, and LEPR mRNA expression in grass carp pituitary cells. (B) Dose dependence of a 24-h treatment with increasing levels of GnRH2 and GnRH3 (0.1–1,000 nM) on POMCb, CART2, UTS1, NMBa, NMBb, and LEPR mRNA expression in grass carp pituitary cells. […]
# [6] = tested on: pituitary; settings: teleost; ref [5], [10]; cited from earlier work
# Excerpt: Subsequently, GnRH2 had been firstly found in chicken so that this variant was also named as chicken GnRH (cGnRH) ([3]). In addition, the third GnRH variant (GnRH3) was an ubiquitous and unique subtype existing in fish ([3]), which was primitively discovered in salmon so that it was named as salmon GnRH (sGnRH) ([4]). Multiple GnRH variants (two or three forms) are present in all teleosts ([5]), but the receptor selectivity a ...
# [7] = 1 μM, time-dependent, Figure 5A
structure (smiles),measurement,setting,value
NC(=O)CNC(=O)[C@@H]1CCCN1C(=O)[C@H](Cc1ccc(O)cc1)NC(=O)[C@H](Cc1c[nH]c2ccccc12)NC(=O)CNC(=O)[C@H](Cc1c[nH]cn1)NC(=O)[C@H](CO)NC(=O)[C@H](Cc1c[nH]c2ccccc12)NC(=O)[C@H](Cc1c[nH]cn1)NC(=O)[C@@H]1CCC(=O)N1 [GnRH2] ([pGlu]HWSHGWYPG-NH2),"effect on food intake, goldfish",[1],significantly decrease food intake
same,"effect on food intake, zebrafish",[2],significantly decrease food intake
same,"effect on DRD2 mRNA expression, time course",[3]; [7],inhibit
same,"effect on GtHα, LHβ, FSHβ, INHBa, and SgII mRNA expression, time course",[3]; [7],significantly induce
same,"effect on DRD2 mRNA expression, dose test","[3]; 0.1–1,000 nM (all treated doses), 24 h, Figure 5B",significantly inhibit
same,"effect on GtHα, LHβ, FSHβ, INHBa, and SgII mRNA expression, dose dependence","[3]; 0.1–1,000 nM, 24 h, dose-dependent, Figure 5B",significantly induce
same,LH secretion compared to GnRH3,"[4]; sexually mature, pre-spawning fish",more robust LH secretion
same,LH-releasing activity,[4]; sexually regressed animals,no effect
same,"effect on POMCb, CART2, UTS1, NMBa, NMBb, and LEPR mRNA expression, time course","[5]; 1 μM, 3, 6, 12, and 24 h, time-dependent, Figure 9A",significantly induce
same,"effect on POMCb, CART2, UTS1, NMBa, NMBb, and LEPR mRNA expression, dose dependence","[5]; 0.1–1,000 nM, 24 h, dose-dependent, Figure 9B",significantly induce
same,effect on LH and FSH secretion in the pituitary,[6],could stimulate
